The results in this text go back to patent publication US20230203058A1, “MACROCYCLIC DIAMINE DERIVATIVES AS ENT INHIBITORS FOR THE TREATMENT OF CANCERS, AND COMBINATION THEREOF WITH ADENOSINE RECEPTOR ANTAGONISTS” (ITEOS BELGIUM SA, priority 2020, published 2023).

One assay addresses T1, human ENT1 (Homo sapiens, UniProt Q99808).
T1 sequence (Q99808 1-456): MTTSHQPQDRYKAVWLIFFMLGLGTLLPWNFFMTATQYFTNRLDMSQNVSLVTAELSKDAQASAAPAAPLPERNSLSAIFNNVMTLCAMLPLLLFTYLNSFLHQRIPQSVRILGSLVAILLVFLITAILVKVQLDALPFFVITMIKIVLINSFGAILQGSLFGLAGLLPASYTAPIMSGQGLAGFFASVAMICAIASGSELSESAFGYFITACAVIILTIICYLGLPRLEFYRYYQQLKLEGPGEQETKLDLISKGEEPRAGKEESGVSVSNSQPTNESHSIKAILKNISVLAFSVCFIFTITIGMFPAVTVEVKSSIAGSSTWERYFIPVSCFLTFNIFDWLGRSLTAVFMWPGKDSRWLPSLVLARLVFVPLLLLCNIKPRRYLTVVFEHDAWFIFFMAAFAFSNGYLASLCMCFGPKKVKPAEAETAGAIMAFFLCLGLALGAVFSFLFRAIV
Kind of assay: ENT1 binding assay (competition with Sahenta-DY647 on JAR cells). Further details: JAR cells expressing ENT1 were bought from ATCC® (HTB-144TM); host or cells: JAR cells (human choriocarcinoma line; whole cells). To be noted: competition with Sahenta-DY647 100 nM, 4° C. The gist of the method: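 Competition binding on intact JAR cells (50000 per well) in HBSS with 10 mM Hepes and 0.1% BSA. Cells pre-incubated with compound 30 min at 4 °C, then Sahenta-DY647 added at its IC90 (100 nM) for another 30 min at 4 °C; after washing, fluorescence read at Ex 630/Em 670 nm.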

Assay [1] deals with CMV peptide-specific CD8+ T cells. As to the kind of experiment: CMV antigen recall assay (FIG. 3). As to conditions: ATP 300 µM, 7 days, with IL-2, IL-7, nivolumab. In kind it is cell-based, human. As for the experimental part:
FIG. 3 depicts a bar graph of percent tetramer. PBMCs from a healthy volunteer donor with previous history of CMV infection and known HLA-A*02 subtype were cultured for 7 days with a peptide ([…]) derived from the immunodominant CMV antigen pp65 alongside IL-2, IL-7 and the anti-PD1 antibody nivolumab. ATP was added to the cultures as a source of adenosine, alongside the ENT1 inhibitor molecules as indicated. Expansion of the peptide-specific CD8^+ T cell population was monitored via flow cytometry using […]-MHC-I tetramers linked with BV421. ** = p < 0.01; * = p < 0.05; derived from one-way ANOVA with Tukey’s multiple comparisons test from technical replicates in a single experiment.
Frozen vials of PBMCs from a healthy volunteer donor with history of CMV infection and known HLA-A*02 subtype were purchased from ImmuneXperts. Cells were thawed and washed into X-VIVO15 medium containing 5% human serum and 1 mM sodium pyruvate and plated in 96 U bottom plates (1 × 10^6 cells per well). […] On day 7 of culture the cells were harvested and the frequency of CMV-peptide specific CD8^+ T cells was assessed via flow cytometry using […]-MHC-I tetramers (Tetramer Shop) by quantifying the frequency of tetramer^+ cells within the viable CD8^+ T cell gate.

The term IC50 denotes the concentration needed to halve the response being measured. Low values mean higher potency, high ones lower potency.

At human ENT1, `COc1cc(C(=O)O[C@H]2CCCOc3cc(cc(OC)c3OC)C(=O)OCCCN3CCCN(CC2)CC3)cc(OC)c1OC` [Compound 2, (12S)-74,75-dimethoxy-6-oxo-5,8-dioxa-1(1,4)-diazepana-7(1,3)-benzenacyclotetradecaphane-12-yl 3,4,5-trimethoxybenzoate] had an IC50 of 1 to 20 nM. Besides, the “Rescue of proliferation of CMV peptide-specific CD8+ T cells” value in assay [1] is “significant rescue of proliferation”.

Compound `COc1cc(C(=O)OC2CCCOc3cc(cc(OC)c3OC)C(=O)N(C)CCCN3CCCN(CC2)CC3)cc(OC)c1OC` (stereo not shown) [Compound 11, 74,75-dimethoxy-5-methyl-6-oxo-8-oxa-5-aza-1(1,4)-diazepana-7(1,3)-benzenacyclotetradecaphane-12-yl 3,4,5-trimethoxybenzoate] returned a 50% inhibitory concentration (IC50) at human ENT1 of 1 to 20 nM. Further, the “Rescue of proliferation of CMV peptide-specific CD8+ T cells” value in assay [1] is on record as “significant rescue of proliferation”.
